Structures are written as SMILES. Where “and” joins values, the source holds several entries; their conditions need not be identical. Equal values may be shown once. Toxic doses and inconclusive results are not listed.

The test concerns P388 leukemia ip, CD2F1 mice, survival T/C. Put plainly: NCI In Vivo Anticancer Drug Screen. Data for tumor model P388 Leukemia (intraperitoneal) in CD2F1 (CDF1) mice. Particulars: endpoint: median survival time, higher = longer survival. In short, it runs like this: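 Mice carrying the transplanted tumor received test compound or vehicle. Survival was recorded in each group, and the value is the treated-group measurement divided by that of the vehicle-treated control group.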

[1] abbreviates: dose: 50.0 mg/kg/injection, schedule: Q01DX009 (ip), vehicle: saline.
The mark [2] stands for this setting: dose: 100.0 mg/kg/injection, schedule: Q01DX009 (ip), vehicle: saline.
Where [3] appears, read: dose: 50.0 mg/kg/injection, schedule: Q01DX005 (ip), vehicle: saline with Tween-80.
[4] abbreviates: dose: 100.0 mg/kg/injection, schedule: Q01DX005 (ip), vehicle: saline with Tween-80.
Where [5] appears, read: dose: 200.0 mg/kg/injection, schedule: Q01DX005 (ip), vehicle: saline with Tween-80.
The mark [6] stands for this setting: dose: 50.0 mg/kg/injection, schedule: Q01DX009 (ip), vehicle: Klucel (hydroxypropylcellulose) (HPC).
The mark [7] stands for this setting: dose: 100.0 mg/kg/injection, schedule: Q01DX009 (ip), vehicle: Klucel (hydroxypropylcellulose) (HPC).
The mark [8] stands for this setting: dose: 200.0 mg/kg/injection, schedule: Q01DX009 (ip), vehicle: Klucel (hydroxypropylcellulose) (HPC).
[9] abbreviates: dose: 50.0 mg/kg/injection, schedule: Q01DX005 (ip), vehicle: Klucel (hydroxypropylcellulose) (HPC).
Where [10] appears, read: dose: 100.0 mg/kg/injection, schedule: Q01DX005 (ip), vehicle: Klucel (hydroxypropylcellulose) (HPC).
[11] abbreviates: dose: 60.0 mg/kg/injection, schedule: Q01DX005 (ip), vehicle: Klucel (hydroxypropylcellulose) (HPC).
Where [12] appears, read: dose: 120.0 mg/kg/injection, schedule: Q01DX005 (ip), vehicle: Klucel (hydroxypropylcellulose) (HPC).
Where [13] appears, read: dose: 240.0 mg/kg/injection, schedule: Q01DX005 (ip), vehicle: Klucel (hydroxypropylcellulose) (HPC).
The mark [14] stands for this setting: dose: 60.0 mg/kg/injection, schedule: Q01DX005 (ip), vehicle: saline.
Setting [15] is: dose: 120.0 mg/kg/injection, schedule: Q01DX005 (ip), vehicle: saline.
Setting [16] is: dose: 6.25 mg/kg/injection, schedule: Q01DX005 (ip), vehicle: saline with Tween-80.
The mark [17] stands for this setting: dose: 12.5 mg/kg/injection, schedule: Q01DX005 (ip), vehicle: saline with Tween-80.
The mark [18] stands for this setting: dose: 25.0 mg/kg/injection, schedule: Q01DX005 (ip), vehicle: saline with Tween-80.

Take `O=C(c1cc(F)ccc1Nc1ccccc1)N1CCOCC1`: the T/C by setting is: (dose: 12.5 mg/kg/injection, schedule: Q01DX009 (ip), vehicle: saline) 98 % of control; (dose: 25.0 mg/kg/injection, schedule: Q01DX009 (ip), vehicle: saline) 100 % of control; under setting [1], 98 % of control and 109 % of control.
For the compound `O=C(O)CCc1cccnc1`, the T/C (dose: 266.0 mg/kg/injection, schedule: Q01DX009 (ip), vehicle: saline with Tween-80) was 105 % of control and the T/C (dose: 400.0 mg/kg/injection, schedule: Q01DX009 (ip), vehicle: saline with Tween-80) was 115 % of control.
With `CCCCNC(=O)C(C)O` (stereo unspecified), the T/C was 101 % of control (dose: 50.0 mg/kg/injection, schedule: Q01DX005 (ip), vehicle: saline); 99 % of control (dose: 100.0 mg/kg/injection, schedule: Q01DX005 (ip), vehicle: saline); 92 % of control (dose: 200.0 mg/kg/injection, schedule: Q01DX005 (ip), vehicle: saline).
Take `Cc1ccno1`: the T/C runs as follows: under setting [1], 105 % of control; under setting [2], 105 % of control; (dose: 200.0 mg/kg/injection, schedule: Q01DX009 (ip), vehicle: saline) 105 % of control; (dose: 400.0 mg/kg/injection, schedule: Q01DX009 (ip), vehicle: saline) 100 % of control.
With `CCCCCCCCCCCCN(CCCCCCCCCCCC)CC(O)c1cc2c(c3ccccc13)CCCC2` (stereo unspecified), the T/C is 101 % of control under setting [3], 97 % of control under setting [4] and 101 % of control under setting [5].
In the case of `CC1=CCC(CC2CO2)C1(C)C` (stereo unspecified), the T/C is, setting by setting: under setting [1], 101 % of control; under setting [2], 108 % of control.
With `Cc1ccc2ccc3ccc(CCl)nc3c2n1`, the T/C (dose: 3.12 micromoles/kg, schedule: Q01DX005 (ip), vehicle: other) was 95 % of control; the T/C (dose: 6.25 micromoles/kg, schedule: Q01DX005 (ip), vehicle: other) was 99 % of control; the T/C (dose: 12.5 micromoles/kg, schedule: Q01DX005 (ip), vehicle: other) was 102 % of control.
Turning to `Cc1ccc(C(=O)NNC(=O)Nc2cccc(Cl)c2C)cc1`, the T/C was 92 % of control under setting [6], 89 % of control under setting [7] and 93 % of control under setting [8].
On to `[CH3][Sn]([CH3])([S]P(=S)(c1ccccc1)c1ccccc1)[S]P(=S)(c1ccccc1)c1ccccc1`, for which the T/C is 118 % of control under setting [9] and 117 % of control under setting [10].
For `CN(Cc1ccc([N+](=O)[O-])cc1)C(=O)Nc1ccc(S(=O)(=O)F)cc1`, the T/C is 110 % of control under setting [11], 92 % of control under setting [12] and 92 % of control under setting [13].
As to `C[O][Sn]([CH3])([CH3])[O][Sn]([CH3])([CH3])[Cl]`, the T/C (dose: 6.25 mg/kg/injection, schedule: Q04DX003 (ip), vehicle: saline) is 103 % of control and 106 % of control; the T/C (dose: 12.5 mg/kg/injection, schedule: Q04DX003 (ip), vehicle: saline) was 100 % of control and 101 % of control and 96 % of control; the T/C (dose: 25.0 mg/kg/injection, schedule: Q04DX003 (ip), vehicle: saline) is 99 % of control and 100 % of control and 109 % of control; the T/C (dose: 50.0 mg/kg/injection, schedule: Q04DX003 (ip), vehicle: saline) is 102 % of control and 120 % of control and 97 % of control.
As for `CCC(c1ccccc1)c1noc(CCN(CC)CC)n1` (stereo unspecified), the T/C is, setting by setting: under setting [6], 101 % of control; under setting [7], 99 % of control; under setting [8], 113 % of control.
Consider `COc1ccc2sc(C)cc(=O)c2c1`, for which the T/C is 106 % of control (dose: 50.0 mg/kg/injection, schedule: Q01DX009 (ip), vehicle: saline + Tween-80 + alcohol); 109 % of control (dose: 100.0 mg/kg/injection, schedule: Q01DX009 (ip), vehicle: saline + Tween-80 + alcohol); 109 % of control (dose: 200.0 mg/kg/injection, schedule: Q01DX009 (ip), vehicle: saline + Tween-80 + alcohol).
Consider `CN1CCC(O)(c2ccccc2)C(Br)C1` (stereo unspecified), for which the T/C (dose: 30.0 mg/kg/injection, schedule: Q01DX005 (ip), vehicle: saline) is 100 % of control and 106 % of control; the T/C under setting [14] was 100 % of control and 105 % of control and 110 % of control; the T/C under setting [15] was 100 % of control and 116 % of control.
With `CC1=CC(Cc2ccccc2)N(C)CC1C` (stereo unspecified), the T/C runs as follows: (dose: 60.0 mg/kg/injection, schedule: Q01DX005 (ip), vehicle: saline with Tween-80) 97 % of control; (dose: 120.0 mg/kg/injection, schedule: Q01DX005 (ip), vehicle: saline with Tween-80) 91 % of control.
Turning to `CC1/C=C/C=C/CC/C=C/C=C/C=C/C=C/C(OC2OC(C)C(O)C(N)C2O)CC2OC(CC(O)C(O)CCC(O)CC(O)CC(O)CC(=O)OC(C)C(C)C1O)CC(O)C2C(=O)O` (stereo unspecified), the T/C was 95 % of control under setting [16]; 100 % of control (dose: 9.5 mg/kg/injection, schedule: Q01DX009 (ip), vehicle: saline sonified); 109 % of control under setting [17]; 95 % of control (dose: 19.0 mg/kg/injection, schedule: Q01DX009 (ip), vehicle: saline sonified); 104 % of control under setting [18]; 100 % of control (dose: 38.0 mg/kg/injection, schedule: Q01DX009 (ip), vehicle: saline sonified). Moreover, the T/C under setting [3] was 95 % of control.
For `CCCCCCC1CC2CCCCN2O1` (stereo unspecified), the T/C by setting is: (dose: 40.0 mg/kg/injection, schedule: Q01DX009 (ip), vehicle: Klucel (hydroxypropylcellulose) (HPC)) 113 % of control; (dose: 80.0 mg/kg/injection, schedule: Q01DX009 (ip), vehicle: Klucel (hydroxypropylcellulose) (HPC)) 107 % of control; (dose: 160.0 mg/kg/injection, schedule: Q01DX009 (ip), vehicle: Klucel (hydroxypropylcellulose) (HPC)) 119 % of control.
On to `CC(C)(C)NC(=O)OCc1c(COC(=O)NC(C)(C)C)c(-c2ccc(Cl)c(Cl)c2)n2c1CCC2`, for which the T/C (dose: 6.25 mg/kg/injection, schedule: Q01DX009 (ip), vehicle: distilled water + Tween-80) is 123 % of control; the T/C (dose: 12.5 mg/kg/injection, schedule: Q01DX009 (ip), vehicle: distilled water + Tween-80) is 124 % of control; the T/C (dose: 50.0 mg/kg/injection, schedule: Q01DX009 (ip), vehicle: distilled water + Tween-80) is 158 % of control and 164 % of control; the T/C (dose: 100.0 mg/kg/injection, schedule: Q01DX009 (ip), vehicle: distilled water + Tween-80) is 164 % of control and 167 % of control; the T/C (dose: 200.0 mg/kg/injection, schedule: Q01DX009 (ip), vehicle: distilled water + Tween-80) is 172 % of control; the T/C (dose: 400.0 mg/kg/injection, schedule: Q01DX009 (ip), vehicle: distilled water + Tween-80) was 117 % of control.
Consider `O=C(O)c1cnc2cc3c(cc2c1Nc1cccc(C(F)(F)F)c1)OCO3`, for which the T/C runs as follows: under setting [11], 99 % of control; under setting [12], 96 % of control; under setting [13], 96 % of control.
As for `CCN(CC)C(=S)n1nc(C)c(N=Nc2cccc(Cl)c2Cl)c1C`, the T/C is 103 % of control under setting [16]; 97 % of control under setting [17]; 93 % of control under setting [18]; 91 % of control under setting [4]; 94 % of control under setting [5].
In the case of `O=C(O)CSc1nnc(Cc2cccc3ccccc23)n1-c1ccccc1`, the T/C under setting [9] is 100 % of control; the T/C under setting [10] is 102 % of control; the T/C (dose: 200.0 mg/kg/injection, schedule: Q01DX005 (ip), vehicle: Klucel (hydroxypropylcellulose) (HPC)) is 100 % of control.
Take `CN(C)CCO`: the T/C under setting [14] was 104 % of control; the T/C under setting [15] is 100 % of control; the T/C (dose: 240.0 mg/kg/injection, schedule: Q01DX005 (ip), vehicle: saline) is 118 % of control.
As to `CC(=O)[C@H]1CC[C@H]2[C@@H]3C[C@H](C)C4=CC(=O)CC[C@]4(C)[C@@]3(F)[C@@H](O)C[C@]12C`, the T/C was 95 % of control (dose: 100.0 mg/kg/injection, schedule: Q04DX003 (ip), vehicle: saline with Tween-80); 87 % of control (dose: 200.0 mg/kg/injection, schedule: Q04DX003 (ip), vehicle: saline with Tween-80); 100 % of control (dose: 400.0 mg/kg/injection, schedule: Q04DX003 (ip), vehicle: saline with Tween-80).

The record behind these values is PubChem BioAssay AID330 (DTP/NCI, 2004).
